What all share (type): cell-based
The target of one experiment is T1, EGFR del/T790M (PC9-DRH) (Homo sapiens, UniProt P00533, DEL746-750/T790M).
T1 construct: detects endogenous levels of phospho-EGF Receptor (Tyr1068) protein; endogenous in cells; host or cells: PC9-DRH (dacomitinib-resistant derivative of PC9, generated in house)
Kind of experiment: pEGFR Y1068 ELISA assay, PC9-DRH cells. To be noted: inhibition of phosphorylation of EGFR at Tyr1068; PC9-DRH cells (dacomitinib resistant); 2 hr compound incubation.

The target in experiment [1] is T2, EGFR wildtype, endogenous (A549) (Homo sapiens, UniProt P00533).
T2 construct: A549 (EGFR wildtype, endogenous); host or cells: A549 (stimulated with EGF)
T2 sequence (P00533 25-1210): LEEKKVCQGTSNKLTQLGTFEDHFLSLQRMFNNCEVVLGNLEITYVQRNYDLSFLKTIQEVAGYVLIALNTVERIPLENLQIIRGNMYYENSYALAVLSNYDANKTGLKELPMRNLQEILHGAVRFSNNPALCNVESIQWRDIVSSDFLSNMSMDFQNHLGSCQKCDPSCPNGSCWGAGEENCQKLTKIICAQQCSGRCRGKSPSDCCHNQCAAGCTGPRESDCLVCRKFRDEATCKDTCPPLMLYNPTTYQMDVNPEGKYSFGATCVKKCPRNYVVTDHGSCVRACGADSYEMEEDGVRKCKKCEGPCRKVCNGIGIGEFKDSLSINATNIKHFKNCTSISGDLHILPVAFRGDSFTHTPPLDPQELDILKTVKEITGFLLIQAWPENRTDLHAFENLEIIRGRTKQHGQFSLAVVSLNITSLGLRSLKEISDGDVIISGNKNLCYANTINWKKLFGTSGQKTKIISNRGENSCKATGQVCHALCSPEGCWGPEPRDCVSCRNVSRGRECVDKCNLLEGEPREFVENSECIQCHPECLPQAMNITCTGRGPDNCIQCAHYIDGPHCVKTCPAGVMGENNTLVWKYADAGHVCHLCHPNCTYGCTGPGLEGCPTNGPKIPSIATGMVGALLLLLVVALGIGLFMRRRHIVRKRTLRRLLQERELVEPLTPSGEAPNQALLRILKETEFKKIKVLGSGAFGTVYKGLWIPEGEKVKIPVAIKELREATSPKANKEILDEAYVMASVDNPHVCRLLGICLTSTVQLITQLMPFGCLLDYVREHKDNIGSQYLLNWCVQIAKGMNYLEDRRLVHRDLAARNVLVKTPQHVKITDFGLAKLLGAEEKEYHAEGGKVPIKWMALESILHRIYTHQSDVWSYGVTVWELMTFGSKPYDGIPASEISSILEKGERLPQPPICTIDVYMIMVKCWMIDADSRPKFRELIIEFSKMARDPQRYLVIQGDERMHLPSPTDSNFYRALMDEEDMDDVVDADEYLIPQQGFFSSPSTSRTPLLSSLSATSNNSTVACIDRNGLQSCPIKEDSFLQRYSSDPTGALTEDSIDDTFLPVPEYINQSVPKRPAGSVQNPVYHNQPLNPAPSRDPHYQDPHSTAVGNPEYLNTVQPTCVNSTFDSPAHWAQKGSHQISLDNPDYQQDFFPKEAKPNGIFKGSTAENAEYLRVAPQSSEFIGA
Kind of experiment: pEGFR Y1068 ELISA assay, A549 cells. Conditions: inhibition of phosphorylation of EGFR at Tyr1068; A549 NSCLC cells; 2 hr compound incubation, then stimulated 10 min with EGF (40 ng/mL). In general terms: ELISA stands for enzyme-linked immunosorbent assay.

The target of experiment [2] is T3, EGFR L858R+T790M, endogenous (NCI-H1975) (Homo sapiens, UniProt P00533, L858R/T790M).
T3 construct: NCI-H1975 (EGFR L858R+T790M, endogenous); host or cells: NCI-H1975
T3 sequence (P00533 25-1210 T790M/L858R): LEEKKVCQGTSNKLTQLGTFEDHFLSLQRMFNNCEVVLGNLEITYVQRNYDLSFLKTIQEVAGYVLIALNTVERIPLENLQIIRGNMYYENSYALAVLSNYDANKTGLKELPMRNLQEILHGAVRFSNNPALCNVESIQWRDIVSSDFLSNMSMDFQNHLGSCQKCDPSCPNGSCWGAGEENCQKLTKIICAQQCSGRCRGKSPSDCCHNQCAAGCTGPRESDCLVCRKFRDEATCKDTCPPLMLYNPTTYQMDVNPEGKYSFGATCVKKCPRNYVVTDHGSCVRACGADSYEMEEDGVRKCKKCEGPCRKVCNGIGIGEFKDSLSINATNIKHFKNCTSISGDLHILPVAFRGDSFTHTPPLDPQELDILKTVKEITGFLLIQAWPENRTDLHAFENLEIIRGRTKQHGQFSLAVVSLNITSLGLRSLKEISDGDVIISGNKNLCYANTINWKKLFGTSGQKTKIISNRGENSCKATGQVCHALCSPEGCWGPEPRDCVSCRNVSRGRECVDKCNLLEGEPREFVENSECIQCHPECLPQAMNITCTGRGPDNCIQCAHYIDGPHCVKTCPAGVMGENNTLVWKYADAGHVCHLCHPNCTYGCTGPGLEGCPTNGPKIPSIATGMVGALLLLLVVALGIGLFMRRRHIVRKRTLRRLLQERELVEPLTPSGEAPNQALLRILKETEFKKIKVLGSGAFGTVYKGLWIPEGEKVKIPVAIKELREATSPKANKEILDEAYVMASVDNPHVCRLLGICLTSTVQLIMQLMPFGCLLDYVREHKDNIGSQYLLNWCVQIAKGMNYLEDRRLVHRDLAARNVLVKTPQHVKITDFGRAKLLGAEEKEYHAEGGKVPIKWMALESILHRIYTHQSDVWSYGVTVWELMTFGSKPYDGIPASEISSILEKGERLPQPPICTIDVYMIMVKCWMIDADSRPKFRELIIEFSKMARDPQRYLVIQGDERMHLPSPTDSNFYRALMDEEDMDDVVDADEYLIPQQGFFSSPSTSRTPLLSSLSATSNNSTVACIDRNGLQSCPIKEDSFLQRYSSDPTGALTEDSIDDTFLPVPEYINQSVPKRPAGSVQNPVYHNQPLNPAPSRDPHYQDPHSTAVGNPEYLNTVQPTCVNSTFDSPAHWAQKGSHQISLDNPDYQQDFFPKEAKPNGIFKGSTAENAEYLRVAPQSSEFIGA
Kind of experiment: pEGFR Y1068 ELISA assay, NCI-H1975 cells. To be noted: inhibition of phosphorylation of EGFR at Tyr1068; NCI-H1975 NSCLC cells; 2 hr compound incubation.

Structures can show the parent of a compound that is named as a salt.

T1 sequence (P00533 with tags, fused parts or gaps DEL746-750/T790M): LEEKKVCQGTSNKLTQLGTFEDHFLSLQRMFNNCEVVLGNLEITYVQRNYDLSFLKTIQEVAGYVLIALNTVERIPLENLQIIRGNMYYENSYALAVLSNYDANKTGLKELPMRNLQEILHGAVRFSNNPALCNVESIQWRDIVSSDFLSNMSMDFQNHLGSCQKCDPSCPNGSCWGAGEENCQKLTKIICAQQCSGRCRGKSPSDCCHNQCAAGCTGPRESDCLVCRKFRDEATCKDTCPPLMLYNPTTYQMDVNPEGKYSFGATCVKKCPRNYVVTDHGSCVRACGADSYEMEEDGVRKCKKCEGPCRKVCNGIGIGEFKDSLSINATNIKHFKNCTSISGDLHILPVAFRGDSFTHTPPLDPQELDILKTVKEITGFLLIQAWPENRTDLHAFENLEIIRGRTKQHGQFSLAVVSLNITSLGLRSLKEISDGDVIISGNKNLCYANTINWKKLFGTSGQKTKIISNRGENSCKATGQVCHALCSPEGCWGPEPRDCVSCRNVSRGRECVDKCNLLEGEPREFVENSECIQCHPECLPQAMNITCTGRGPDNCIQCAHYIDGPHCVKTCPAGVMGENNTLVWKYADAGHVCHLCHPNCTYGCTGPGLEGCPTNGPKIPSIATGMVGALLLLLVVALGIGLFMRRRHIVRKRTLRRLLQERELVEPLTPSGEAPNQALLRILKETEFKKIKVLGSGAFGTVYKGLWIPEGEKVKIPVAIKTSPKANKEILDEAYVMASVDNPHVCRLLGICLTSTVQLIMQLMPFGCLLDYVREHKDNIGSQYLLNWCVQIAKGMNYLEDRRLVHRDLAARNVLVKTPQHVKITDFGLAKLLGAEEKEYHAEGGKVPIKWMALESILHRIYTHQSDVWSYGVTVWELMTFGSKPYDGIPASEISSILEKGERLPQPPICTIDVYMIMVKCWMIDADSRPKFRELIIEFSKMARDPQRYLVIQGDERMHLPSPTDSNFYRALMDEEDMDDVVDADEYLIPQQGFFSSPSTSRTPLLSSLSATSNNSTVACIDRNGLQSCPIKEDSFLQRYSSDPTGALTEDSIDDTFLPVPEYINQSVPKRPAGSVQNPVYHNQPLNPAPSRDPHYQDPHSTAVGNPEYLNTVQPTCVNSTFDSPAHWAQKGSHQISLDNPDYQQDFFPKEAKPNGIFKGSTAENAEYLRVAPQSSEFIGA
Protocol for EGFR del/T790M (PC9-DRH): The PathScan® Phospho-EGF Receptor (Tyr1068) Sandwich ELISA Kit is a solid phase sandwich enzyme-linked immunosorbent assay (ELISA) that detects endogenous levels of phospho-EGF Receptor (Tyr1068) protein. […] NCI-H3255 cells were licensed from NCI. […] All cells were cultured according to ATCC recommendations. A549, NCI-H1975, PC9, and NCI-H3255 cells were grown in RPMI media (Invitrogen, Carlsbad, Calif.) supplemented with 10% FBS (Sigma, St Louis, Mo.), and with 1% Penn/Strep (Invitrogen).
Each compound was prepared as a DMSO stock solution (10 mM). Compounds were tested in duplicate on each plate, with an 11-point serial dilution curve (1:3 dilution). Compound treatment (50 μL) was added from the compound dilution plate to the cell plate. […] Plates were then incubated for 2 hr at 37° C., 5% CO2. […] The wash was then flicked off and ice-cold lysis buffer was added to the cells (50 μL/well). The plate was shaken for 20-30 min at 4° C. to completely lyse the cells. Sample diluent (50 μL/well) was added to the ELISA plate, and the lysate (50 μL) was diluted into the sample diluent in each well of the ELISA plate. Plates were sealed and incubated overnight at 4° C. with shaking. The next day, wells were washed four times with 1× Wash Buffer; plates were taped on lint-free paper after the final wash prior to adding Add Detection Antibody (green, 100 μL/well) to each well and incubating for 1 hr at 37° C. After incubation, wells were washed as described. HRP-Linked secondary antibody (red, 100 μL/well) was added to each well and incubated for 30 min at 37° C. After incubation, the wells were washed as described. TMB Substrate (100 μL/well) was added to each well and the plate incubated for 10 min at 37° C. or 30 min at rt maximum. Stop Solution (100 μL/well) was added to each well at the end of the incubation and plates were shaken gently for a few seconds. […] Data were analyzed using a four-parameter fit in Microsoft Excel.

As usually defined, the IC50 is the concentration needed to halve the response being measured. A lower IC50 goes with greater potency. For `C=CC(=O)N1C[C@@H](F)[C@H](Nc2nc(Nc3ccc(N4CCN(C)CC4)cc3)c3ncn(C(C)C)c3n2)C1` (relative stereo) [Example 19, 1-((trans)-3-fluoro-4-((9-isopropyl-6-((4-(4-methylpiperazin-1-yl)phenyl)amino) -9H-purin-2-yl)amino)pyrrolidin-1-yl)prop-2-en-1-one], the figures for the IC50 (against EGFR del/T790M (PC9-DRH); in experiment [1]; in experiment [2]) were 25 nM, 194 nM and 10 nM, respectively.
Turning to `C=CC(=O)N1C[C@@H](F)[C@H](Nc2nc(Nc3ccc(N4CCN(C)CC4)cc3)c3ncn(C)c3n2)C1` (relative stereo) [Example 20, 1-((trans)-3-fluoro-4-((9-methyl-6-((4-(4-methylpiperazin-1-yl)phenyl)amino)-9H -purin-2-yl)amino)pyrrolidin-1-yl)prop-2-en-1-one], the figures for the IC50 (at EGFR del/T790M (PC9-DRH); in experiment [1]; in experiment [2]) were 2 nM, 119 nM and 11 nM, respectively.
The corresponding values for `C=CC(=O)N1C[C@H]2CN(c3nc(Nc4ccc(N5CCN(C)CC5)cc4)c4ncn(C(C)C)c4n3)C[C@]2(OC)C1` (single isomer, unassigned) [Example 64] are 8 nM, 127 nM and 8 nM.
Turning to `C=CC(=O)Nc1cccc(Oc2nc(Nc3cnn(C)c3)c3ncn(C(C)C)c3n2)c1` [Example 3, N-(3-((9-isopropyl-6-((1-methyl-1H-pyrazol-4-yl)amino)-9H-purin-2-yl)oxy)phenyl)acrylamide trifluoroacetate], the IC50 amounted to 8 nM against EGFR del/T790M (PC9-DRH), 162 nM in experiment [1] and 20 nM in experiment [2].
On to `C=CC(=O)N[C@@H]1CN(c2nc(Nc3cn(C4CN(C)C4)nc3OC)c3ncn(C)c3n2)C[C@H]1F` [Example 5, N-((3R,4R)-4-fluoro-1-(6-((3-methoxy-1-(1-methylazetidin-3-yl)-1H-pyrazol-4-yl)amino)-9-methyl-9H-purin-2-yl)pyrrolidin-3-yl)acrylamide], for which the IC50 on EGFR del/T790M (PC9-DRH) was 8 nM; in experiment [1], 546 nM; in experiment [2], 17 nM.
The corresponding values for `C=CC(=O)NC1(C)CN(c2nc(Nc3cnn(C)c3)c3ncn(C(C)(C)C)c3n2)C1` [Example 8, N-(1-(9-(tert-butyl)-6-((1-methyl-1H-pyrazol-4-yl)amino)-9H-purin-2-yl)-3-methylazetidin-3-yl)acrylamide] are 37 nM, 4480 nM and 97 nM.
In the case of `C=CC(=O)N[C@H]1CCN(c2nc(Nc3ccc(N4CCN(C)CC4)cc3)c3ncn(C(C)(C)C)c3n2)C1` [Example 9, (S)-N-(1-(9-(tert-butyl)-6-((4-(4-methylpiperazin-1-yl)phenyl)amino)-9H-purin-2-yl)pyrrolidin-3-yl)acrylamide], the results for the IC50 (on EGFR del/T790M (PC9-DRH); in experiment [1]; in experiment [2]) were 26 nM, 2740 nM and 32 nM, respectively.
As for `C=CC(=O)N[C@H]1CCN(c2nc(Nc3ccc(N4CCN(C)CC4)cc3)c3ncn(C(C)CO)c3n2)C1` (stereo partly drawn) [Example 48, N-((3S)-1-(9-(1-hydroxypropan-2-yl)-6-((4-(4-methylpiperazin-1-yl)phenyl)amino) -9H-purin-2-yl)pyrrolidin-3-yl)acrylamide], the IC50 turned out to be 4360 nM in experiment [1] and 204 nM in experiment [2].
For `C=CC(=O)N[C@H]1CCN(c2nc(Nc3cnn(C)c3)c3ncn(C4(C)CC4)c3n2)C1` [Example 60, (S)-N-(1-(6-((1-methyl-1H-pyrazol-4-yl)amino)-9-(1-methylcyclopropyl)-9H-purin-2-yl)pyrrolidin-3-yl)acrylamide], the IC50 in experiment [1] amounted to 1390 nM; in experiment [2], 317 nM.
Regarding `C=CC(=O)N[C@H]1CN(c2nc(Nc3cnn(CCN(C)C)c3)c3ncn(C(C)C)c3n2)C[C@@H]1F` [Example 67, N-((3S,4S)-1-(6-((1-(2-(dimethylamino)ethyl)-1H-pyrazol-4-yl)amino)-9-isopropyl-9H-purin-2-yl)-4-fluoropyrrolidin-3-yl)acrylamide], the IC50 in experiment [1] was found to be 90 nM; in experiment [2], 8 nM.
Taken in the same sequence, the figures for `C=CC(=O)N[C@@H]1CN(c2nc(Nc3cnn(CCN(C)C)c3)c3ncn(C(C)(C)C)c3n2)C[C@H]1F` [Example 68, N-((3R,4R)-1-(9-(tert-butyl)-6-((1-(2-(dimethylamino)ethyl)-1H-pyrazol-4-yl)amino)-9H-purin-2-yl)-4-fluoropyrrolidin-3-yl)acrylamide] were 707 nM and 18 nM.
The corresponding values for `C=CC(=O)N[C@H]1CCN(c2nc(Nc3cnn([C@H]4CCN(C)C4)c3)c3ncn(C(C)C)c3n2)C1` [Example 69, N—((S)-1-(9-isopropyl-6-((1-((S)-1-methylpyrrolidin-3-yl)-1H-pyrazol-4-yl)amino) -9H-purin-2-yl)pyrrolidin-3-yl)acrylamide] are 712 nM and 37 nM.
As to `C=CC(=O)N[C@@H]1CN(c2nc(Nc3cnn(C4CCN(C)CC4)c3)c3ncn(C(C)(C)C)c3n2)C[C@H]1F` [Example 70, N-((3R,4R)-1-(9-(tert-butyl)-6-((1-(1-methylpiperidin-4-yl)-1H-pyrazol-4-yl)amino) -9H-purin-2-yl)-4-fluoropyrrolidin-3-yl)acrylamide], the IC50 in experiment [1] was 609 nM; in experiment [2], 29 nM.
`C=CC(=O)N[C@@H]1CN(c2nc(Nc3cnn(C4CCN(C)CC4)c3)c3ncn(C(C)C)c3n2)C[C@H]1F` [Example 71, N-((3R,4R)-4-fluoro-1-(9-isopropyl-6-((1-(1-methylpiperidin-4-yl)-1H-pyrazol-4-yl)amino)-9H-purin-2-yl)pyrrolidin-3-yl)acrylamide]: the IC50 in experiment [1] was found to be 167 nM; in experiment [2], 20 nM.
As to `C=CC(=O)N[C@@H]1CN(c2nc(Nc3cn(CC(C)O)nc3OC)c3ncn(C)c3n2)C[C@H]1F` (stereo partly drawn) [Example 83, N-((3R,4R)-4-fluoro-1-(6-((1-(2-hydroxypropyl)-3-methoxy-1H-pyrazol-4-yl)amino)-9-methyl-9H-purin-2-yl)pyrrolidin-3-yl)acrylamide], the IC50 in experiment [1] is 3450 nM; in experiment [2], 132 nM.
Taken in the same sequence, the figures for `C=CC(=O)N[C@@H]1CN(c2nc(Nc3cn(CC(C)O)nc3OC)c3ncn(CC)c3n2)C[C@H]1F` (stereo partly drawn) [Example 86, N-((3R,4R)-1-(9-ethyl-6-((1-(2-hydroxypropyl)-3-methoxy-1H-pyrazol-4-yl)amino) -9H-purin-2-yl)-4-fluoropyrrolidin-3-yl)acrylamide] were 1220 nM and 32 nM.
`C=CC(=O)N[C@@H]1CN(c2nc(Nc3ccc(N4CCC(N(C)C)CC4)cc3)c3ncn(C(C)C)c3n2)C[C@H]1F` [Example 89, N-((3R,4R)-1-(6-((4-(4-(dimethylamino)piperidin-1-yl)phenyl)amino)-9-isopropyl-9H-purin-2-yl)-4-fluoropyrrolidin-3-yl)acrylamide] registered an IC50 on EGFR del/T790M (PC9-DRH) of 3 nM.
Same read-out and setting: the result for `C=CC(=O)N[C@@H]1CN(c2nc(Nc3ccc(N4CCC(N(C)C)CC4)cc3OC)c3ncn(C(C)C)c3n2)C[C@H]1F` [Example 90, N-((3R,4R)-1-(6-((4-(4-(dimethylamino)piperidin-1-yl)-2-methoxyphenyl)amino)-9-isopropyl-9H-purin-2-yl)-4-fluoropyrrolidin-3-yl)acrylamide] reads 9 nM.

The record behind these values is US9290496B2, “Purine derivatives” (PFIZER INC., priority 2013, dated 2016).
